The structures appear in SMILES notation.

The assay deals with T1, human recombinant full-length fatty acid synthase (FASN) (Homo sapiens, UniProt P49327).
T1 construct: 40 nM human recombinant full-length fatty acid synthase (produced in-house in SF9 cells); made in house; host or cells: SF9 insect cells
T1 sequence (P49327 whole entry): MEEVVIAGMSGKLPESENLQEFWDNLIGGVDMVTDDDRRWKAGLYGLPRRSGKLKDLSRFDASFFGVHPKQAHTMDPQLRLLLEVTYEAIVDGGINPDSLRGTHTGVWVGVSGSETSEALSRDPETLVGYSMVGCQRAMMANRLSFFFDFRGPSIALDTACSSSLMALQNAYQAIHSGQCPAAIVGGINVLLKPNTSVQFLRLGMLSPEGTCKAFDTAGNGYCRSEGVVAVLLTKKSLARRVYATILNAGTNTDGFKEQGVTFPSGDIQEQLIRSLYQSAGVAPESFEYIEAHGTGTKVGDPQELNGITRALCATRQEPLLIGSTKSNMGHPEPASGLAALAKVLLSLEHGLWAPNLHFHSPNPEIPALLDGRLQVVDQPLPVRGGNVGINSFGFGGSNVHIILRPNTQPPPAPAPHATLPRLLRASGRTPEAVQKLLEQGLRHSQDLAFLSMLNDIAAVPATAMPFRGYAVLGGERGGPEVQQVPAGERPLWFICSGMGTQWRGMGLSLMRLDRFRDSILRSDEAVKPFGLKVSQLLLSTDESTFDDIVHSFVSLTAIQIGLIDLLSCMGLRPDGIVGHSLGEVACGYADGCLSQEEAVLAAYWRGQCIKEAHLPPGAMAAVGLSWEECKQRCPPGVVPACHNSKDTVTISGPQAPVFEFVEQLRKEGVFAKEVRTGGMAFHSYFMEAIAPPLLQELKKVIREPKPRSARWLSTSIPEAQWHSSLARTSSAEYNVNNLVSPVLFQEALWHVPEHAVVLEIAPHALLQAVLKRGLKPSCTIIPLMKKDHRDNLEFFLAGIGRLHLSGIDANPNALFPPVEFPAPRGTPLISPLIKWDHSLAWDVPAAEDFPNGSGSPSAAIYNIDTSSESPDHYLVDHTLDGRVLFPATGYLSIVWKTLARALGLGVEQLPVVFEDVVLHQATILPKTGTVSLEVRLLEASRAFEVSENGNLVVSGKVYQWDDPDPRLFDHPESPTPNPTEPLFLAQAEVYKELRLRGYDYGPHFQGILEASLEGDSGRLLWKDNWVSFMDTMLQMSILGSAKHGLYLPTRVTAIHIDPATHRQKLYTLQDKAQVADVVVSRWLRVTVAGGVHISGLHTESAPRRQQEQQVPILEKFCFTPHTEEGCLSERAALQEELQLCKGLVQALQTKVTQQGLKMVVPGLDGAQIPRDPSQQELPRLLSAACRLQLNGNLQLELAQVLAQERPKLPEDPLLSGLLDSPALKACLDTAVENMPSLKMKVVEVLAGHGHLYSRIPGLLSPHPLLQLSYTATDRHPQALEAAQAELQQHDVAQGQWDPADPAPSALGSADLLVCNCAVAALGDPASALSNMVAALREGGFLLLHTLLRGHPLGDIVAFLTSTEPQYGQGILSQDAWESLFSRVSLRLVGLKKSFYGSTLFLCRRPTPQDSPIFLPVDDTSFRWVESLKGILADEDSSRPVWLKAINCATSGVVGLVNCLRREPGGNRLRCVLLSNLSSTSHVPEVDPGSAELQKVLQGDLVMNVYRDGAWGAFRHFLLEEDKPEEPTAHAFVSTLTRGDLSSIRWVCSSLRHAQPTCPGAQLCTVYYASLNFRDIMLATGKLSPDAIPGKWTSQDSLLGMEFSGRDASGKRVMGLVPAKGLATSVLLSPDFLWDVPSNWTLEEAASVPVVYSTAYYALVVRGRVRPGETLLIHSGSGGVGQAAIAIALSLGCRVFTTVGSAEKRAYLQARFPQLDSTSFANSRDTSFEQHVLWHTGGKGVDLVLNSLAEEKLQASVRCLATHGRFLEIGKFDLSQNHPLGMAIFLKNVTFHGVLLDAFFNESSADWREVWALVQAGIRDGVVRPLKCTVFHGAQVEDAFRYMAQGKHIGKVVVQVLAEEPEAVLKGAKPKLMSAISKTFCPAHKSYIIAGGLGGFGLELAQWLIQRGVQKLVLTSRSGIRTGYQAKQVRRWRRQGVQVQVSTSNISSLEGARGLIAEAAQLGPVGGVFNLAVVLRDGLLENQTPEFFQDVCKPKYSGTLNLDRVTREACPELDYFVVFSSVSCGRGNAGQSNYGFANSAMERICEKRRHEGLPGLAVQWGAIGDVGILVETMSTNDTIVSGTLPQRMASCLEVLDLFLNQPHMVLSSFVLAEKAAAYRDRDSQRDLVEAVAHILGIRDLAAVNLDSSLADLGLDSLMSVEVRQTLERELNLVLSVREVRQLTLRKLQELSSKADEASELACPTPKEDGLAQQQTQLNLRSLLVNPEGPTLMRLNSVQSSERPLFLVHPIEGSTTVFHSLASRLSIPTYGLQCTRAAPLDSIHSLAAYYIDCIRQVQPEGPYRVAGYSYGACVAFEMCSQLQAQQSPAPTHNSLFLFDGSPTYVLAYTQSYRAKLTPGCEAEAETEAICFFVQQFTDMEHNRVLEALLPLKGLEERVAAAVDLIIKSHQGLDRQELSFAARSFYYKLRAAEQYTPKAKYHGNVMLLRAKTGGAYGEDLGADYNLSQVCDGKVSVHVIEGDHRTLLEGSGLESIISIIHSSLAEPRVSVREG
Briefly: Biochemical activity testing of human fatty acid synthase FASN (NADPH fluorescence intensity enzyme assay). The settings on record: human recombinant FASN, enzyme assay. The text has this: Biochemical Activity Testing of Human Fatty Acid Synthase FASN
Fatty acid synthase FASN is a multifunctional enzyme with seven catalytic activities thereby synthesising long chain fatty acids especially palmitoyl-CoA in the presence of co-factor NADPH starting from the substrates acetyl-CoA and malonyl-CoA. The reductive synthesis is realized by the oxidation of NADPH to NADP. Since NADPH has a high fluorescence intensity quantum yield compared to NADP with excitation at 340 nm and emission at 460 nm, the reaction can be monitored via the decrease in fluorescence intensity. The biochemical FASN activity testing was performed as 384 well two-time-point kinetic fluorescence intensity assay format in Greiner low volume medium binding 384-well black microtiter plates in a total assay volume of 8 μl and was used for high throughput screen. In each well 3 μl 40 nM human recombinant full-length fatty acid synthase (produced in-house in SF9 cells) were dispensed in the following assay buffer: 50 mM potassium phosphate buffer pH 7.0, 0.005% (w/v) BSA, 2 mM Glutathione, 0.02% Tween-20. Then 2 μl of 200 μM NADPH in assay buffer were added, followed by the addition of the test compounds in 10 dilution concentrations starting with 30 μM (final concentration) to get a final DMSO content of 1% (v/v). The mixture was incubated for at least 15 min at room temperature. After the pre-incubation the enzymatic reaction was started by the addition of 2 μl substrate solution (80 μM acetyl-CoA, 240 μM malonyl-CoA). A first fluorescence intensity measurement (time point one) was performed with an Envision multimode reader (Perkin Elmer LAS Germany GmbH) at excitation wavelength 340 nm (lamp mode) and emission wavelength 460 nm. The reaction was incubated for 30 minutes at room temperature. After this the fluorescence intensity was measured again in the Envision using the same parameters as described above (second time point measurement). The data were analysed by subtracting the first time point measurement value from the second time point measurement value (after the enzymatic reaction). The differences of the emission signals were determined. These reflect directly the conversion rate of NADPH. The full value used was the inhibitor-free reaction. A pharmacological zero value was used like GSK837149A (Sigma-Aldrich) in a final concentration of 5-10 μM. The inhibitory values (IC50) were determined using either the program Symyx Assay Explorer® or Condosseo® from GeneData.
`CCNC(=O)[C@H]1CC[C@@H](n2nncc2-c2ccc(-c3ccc(Cl)cc3)cc2)C1` [Compound A14, (1S,3R)-3-[5-(4′-chloro-biphenyl-4-yl)-[1,2,3]triazol-1-yl]-cyclopentanecarboxylic acid ethylamide]: the IC50 (usually the concentration at which inhibition is half-maximal) was < 300 nM.

Take `CC1(NC(=O)[C@H]2CC[C@@H](n3cncc3-c3ccc(-c4ccc5cc[nH]c5c4)cc3)C2)CC1` [Compound A7, (1S,3R)-3-{5-[4-(1H-indol-6-yl)-phenyl]-imidazol-1-yl}-cyclopentanecarboxylic acid (1-methyl-cyclopropyl)-amide]: the IC50 is < 300 nM.

As for `CCNC(=O)[C@H]1CC[C@@H](n2nncc2-c2ccc(-c3ccc(C(N)=O)cc3)cc2)C1` [Compound A99, 4′-[3-((1R,3S)-3-Ethylcarbamoyl-cyclopentyl)-3H-[1,2,3]triazol-4-yl]-biphenyl-4-carboxylic acid amide], the concentration for half-maximal inhibition (IC50) lay within 300 to 3000 nM.

With `CCNC(=O)[C@H]1CC[C@@H](n2nncc2-c2ccc(-c3ccc(C#N)cc3F)cc2)C1` [Compound A106, (1S,3R)-3-[5-(4′-Cyano-2′-fluoro-biphenyl-4-yl)-[1,2,3]triazol-1-yl]-cyclopentanecarboxylic acid ethylamide], the half-inhibitory concentration (IC50) was < 300 nM.

`CCC(=O)N[C@H]1CC[C@@H](n2nncc2-c2ccc(-c3ccc(Cl)cc3F)cc2)C1` [Compound A81, N-{(1S,3R)-3-[5-(4′-Chloro-2′-fluoro-biphenyl-4-yl)-[1,2,3]triazol-1-yl]-cyclopentyl}-propionamide]: the concentration for half-maximal inhibition (IC50) was < 300 nM.

As for `CCNC(=O)[C@H]1CC[C@@H](n2cnnc2-c2ccc(-c3ccc(C#N)cc3)cc2)C1` [Compound A32, (1S,3R)-3-[3-(4′-cyano-biphenyl-4-yl)-[1,2,4]triazol-4-yl]-cyclopentanecarboxylic acid ethylamide], the concentration for half-maximal inhibition (IC50) is < 300 nM.

Regarding `O=C(N[C@H]1CC[C@@H](n2nncc2-c2ccc(-c3nc4ccccc4o3)cc2)C1)[C@@H](O)CO` [Compound A93, (S)—N-{(1S,3R)-3-[5-(4-Benzoxazol-2-yl-phenyl)-[1,2,3]triazol-1-yl]-cyclopentyl}-2,3-dihydroxy-propionamide], the 50% inhibitory concentration (IC50) was 300 to 3000 nM.

In the case of `CCC(=O)N[C@H]1CC[C@@H](n2nncc2-c2ccc(-c3ccc(-n4cccn4)cc3)cc2)C1` [Compound A76, N-{(1S,3R)-3-[5-(4′-Pyrazol-1-yl-biphenyl-4-yl)-[1,2,3]triazol-1-yl]-cyclopentyl}-propionamide], the IC50 is < 300 nM.

As for `CCC(=O)N[C@H]1CC[C@@H](n2nncc2-c2ccc(-c3ccc4[nH]ccc4c3)cc2)C1` [Compound A27, N-((1S,3R)-3-{5-[4-(1H-indol-5-yl)-phenyl]-[1,2,3]triazol-1-yl}-cyclopentyl)-propionamide], the IC50 was < 300 nM.

For the compound `CCC(=O)N[C@H]1CC[C@@H](n2cnnc2-c2ccc(-c3ccc(OC)cc3C)cc2)C1` [Compound A94, N-{(1S,3R)-3-[3-(4′-Methoxy-2′-methyl-biphenyl-4-yl)-[1,2,4]triazol-4-yl]-cyclopentyl}-propionamide], the IC50 is < 300 nM.

For `CCC(=O)N[C@H]1CC[C@@H](n2cnnc2-c2ccc(-c3ccc(Cl)cc3)cc2)C1` [Compound A39, N-{(1S,3R)-3-[3-(4′-chloro-biphenyl-4-yl)-[1,2,4]triazol-4-yl]-cyclopentyl}-propionamide], the IC50 is < 300 nM.

Consider `CCC(=O)N[C@H]1CC[C@@H](n2cncc2-c2ccc(-c3nc4ccccc4s3)cc2)C1` [Compound A20, N-{(1S,3R)-3-[5-(4-benzothiazol-2-yl-phenyl)-imidazol-1-yl]-cyclopentyl}-propionamide], for which the IC50 is < 300 nM.

Turning to `CCC(=O)N[C@H]1CC[C@@H](n2cnnc2-c2ccc(-c3nc4ccccc4o3)cc2)C1` [Compound A37, N-{(1S,3R)-3-[3-(4-benzoxazol-2-yl-phenyl)-[1,2,4]triazol-4-yl]-cyclopentyl}-propionamide], the concentration for half-maximal inhibition (IC50) was < 300 nM.

For `CC1(C)OC[C@@H](C(=O)N[C@H]2CC[C@@H](n3nncc3-c3ccc(-c4nc5ccccc5o4)cc3)C2)O1` [Compound A90, (S)-2,2-Dimethyl-[1,3]dioxolane-4-carboxylic acid {(1S,3R)-3-[5-(4-benzoxazol-2-yl-phenyl)-[1,2,3]triazol-1-yl]-cyclopentyl}-amide], the 50% inhibitory concentration (IC50) is < 300 nM.

Consider `CCC(=O)N[C@H]1CC[C@@H](n2nncc2-c2ccc(-c3ccc4c(ccn4C)c3)cc2)C1` [Compound A71, N-((1S,3R)-3-{5-[4-(1-Methyl-1H-indol-5-yl)-phenyl]-[1,2,3]triazol-1-yl}-cyclopentyl)-propionamide], for which the IC50 was < 300 nM.

Take `CCNC(=O)[C@H]1CC[C@@H](n2cncc2-c2ccc(-c3nc4ccccc4o3)cc2)C1` [Compound A1, (1S,3R)-3-[5-(4-benzooxazol-2-yl-phenyl)-imidazol-1-yl]-cyclopentanecarboxylic acid ethylamide]: the IC50 is < 300 nM.

`CC1(NC(=O)[C@H]2CC[C@@H](n3cncc3-c3ccc(-c4ccc5[nH]nnc5c4)cc3)C2)CC1` [Compound A9, (1S,3R)-3-{5-[4-(1H-benzotriazol-5-yl)-phenyl]-imidazol-1-yl}-cyclopentanecarboxylic acid (1-methyl-cyclopropyl)-amide]: the half-inhibitory concentration (IC50) is < 300 nM.

`CCC(=O)N[C@H]1CC[C@@H](n2nncc2-c2ccc(-c3ccc(OC)cc3C)cc2)C1` [Compound A82, N-{(1S,3R)-3-[5-(4′-Methoxy-2′-methyl-biphenyl-4-yl)-[1,2,3]triazol-1-yl]-cyclopentyl}-propionamide]: the concentration for half-maximal inhibition (IC50) is < 300 nM.

Consider `CCNC(=O)[C@H]1CC[C@@H](n2nncc2-c2ccc(-c3ccc(C#N)c(F)c3)cc2)C1` [Compound A105, (1S,3R)-3-[5-(4′-Cyano-3′-fluoro-biphenyl-4-yl)-[1,2,3]triazol-1-yl]-cyclopentanecarboxylic acid ethylamide], for which the IC50 was < 300 nM.

For the compound `CCC(=O)N[C@H]1CC[C@@H](n2nncc2-c2ccc(-c3ccc4[nH]ccc4c3F)c(F)c2)C1` [Compound A119, N-((1S,3R)-3-{5-[3-Fluoro-4-(4-fluoro-1H-indol-5-yl)-phenyl]-[1,2,3]triazol-1-yl}-cyclopentyl)-propionamide], the concentration for half-maximal inhibition (IC50) is < 300 nM.

Turning to `CCNC(=O)[C@H]1CC[C@@H](n2cncc2-c2ccc(-c3ccccc3)cc2)C1` [Compound A2, (1S,3R)-3-(5-biphenyl-4-yl-imidazol-1-yl)-cyclopentanecarboxylic acid ethylamide], the IC50 was < 300 nM.

As to `O=C(N[C@H]1CC[C@@H](n2nncc2-c2ccc(-c3nc4ccccc4o3)cc2)C1)C1CC1` [Compound A66, Cyclopropanecarboxylic acid {(1S,3R)-3-[5-(4-benzooxazol-2-yl-phenyl)-[1,2,3]triazol-1-yl]-cyclopentyl}-amide], the half-maximal inhibitory concentration (IC50) was < 300 nM.

As for `CCC(=O)N[C@H]1CC[C@@H](n2nncc2-c2ccc(-c3nc4ccccc4s3)cc2)C1` [Compound A28, N-{(1S,3R)-3-[5-(4-benzothiazol-2-yl-phenyl)-[1,2,3]triazol-1-yl]-cyclopentyl}-propionamide], the IC50 is < 300 nM.

Regarding `CCC(=O)N[C@H]1CC[C@@H](n2nncc2-c2ccc(-c3ccc4nccn4c3)nc2)C1` [Compound A109, N-{(1S,3R)-3-[5-(6-Imidazo[1,2-a]pyridin-6-yl-pyridin-3-yl)-[1,2,3]triazol-1-yl]-cyclopentyl}-propionamide], the IC50 lay in the range of 300 to 3000 nM.

For `CCC(=O)N[C@H]1CC[C@@H](n2nncc2-c2ccc(-c3ccc4c(c3)NC(=O)C4)cc2)C1` [Compound A91, N-((1S,3R)-3-{5-[4-(2-Oxo-2,3-dihydro-1H-indol-6-yl)-phenyl]-[1,2,3]triazol-1-yl}-cyclopentyl)-propionamide], the concentration for half-maximal inhibition (IC50) is < 300 nM.

For `O=C(CC1CCCC1)N[C@H]1CC[C@@H](n2nncc2-c2ccc(-c3nc4ccccc4o3)cc2)C1` [Compound A67, N-{(1S,3R)-3-[5-(4-Benzoxazol-2-yl-phenyl)-[1,2,3]triazol-1-yl]-cyclopentyl}-2-cyclopentyl-acetamide], the IC50 was 300 to 3000 nM.

Consider `CCC(=O)N[C@H]1CC[C@@H](n2nncc2-c2ccc(-c3cccc4[nH]ncc34)nc2)C1` [Compound A123, N-((1S,3R)-3-{5-[6-(1H-Indazol-4-yl)-pyridin-3-yl]-[1,2,3]triazol-1-yl}-cyclopentyl)-propionamide], for which the IC50 is 300 to 3000 nM.

Regarding `CCNC(=O)[C@H]1CC[C@@H](n2cnnc2-c2ccc(-c3nc4ccccc4o3)cc2)C1` [Compound A29, (1S,3R)-3-[3-(4-benzoxazol-2-yl-phenyl)-[1,2,4]triazol-4-yl]-cyclopentanecarboxylic acid ethylamide], the IC50 was < 300 nM.

The values are drawn from patent US9718785B2, “1,3-Disubstituted cyclopentane derivatives” (MERCK PATENT GMBH, priority 2013, dated 2017).
